The nature of series [1]: Non-specific protein binding (rapid equilibrium dialysis). It counts as in vitro ADME, Sprague-Dawley rats. The conditions noted are these: both sexes, Sprague-Dawley, RED device, 4-hour incubation at 37° C. The procedure:
Plasma and tissue exposures of exemplary compounds were scaled by their non-specific affinity for protein binding in target tissues or fluids to determine the fraction of compound available for interaction with the target. Non-specific binding was determined in blood plasma and brain homogenate collected from mixed-sex Sprague-Dawley rats.
Known concentrations of test compounds were mixed with plasma or brain homogenate and incubated in the donor chamber of a rapid equilibrium dialysis (RED) device with empty PBS buffer in the receiving chamber. After a 4-hour incubation at 37° C. in an orbital shaking incubator, compound in each chamber was quantified by LC-MS/MS. The unbound fraction (fu,tissue) was calculated using the following formula:
[formula] • where: • fu,tissue is the unbound fraction in the tissue; • fu,homogenate is the ratio of concentration in the buffer chamber to concentration in the sample chamber; and • D is the dilution factor used to produce the sample.
(In general: Equilibrium dialysis compares concentrations on both sides of a semipermeable membrane.)

Series [2] is described as follows: In vivo tissue distribution. The arrangement: species or system Sprague-dawley rats. The following applies: rat. The procedure:
The rate of distribution to target tissues is an important feature of therapeutic molecules. Tissue distribution of exemplary compounds was performed in mixed-sex Sprague-dawley rats. Test compounds were delivered via tail vein injection (IV) and tissues were collected at Tmax (10 minutes post administration). Animals were deeply anesthetized with isoflurane and whole blood was collected from the right atrium and processed by centrifugation to produce plasma. Animals were then fully perfused with PBS administered to the left ventricle to prevent blood contamination of tissues.
Tissues were collected and homogenized, and compound content in the target tissue was quantified by LC-MS/MS. Tissue distribution rates were determined by dividing the tissue concentration of compound by the plasma concentration and multiplying by 100.

The test system of series [3] is scopolamine-induced spatial memory deficit in rats. As to the kind of experiment: Scopolamine-induced spatial memory deficit in the Morris water maze (compounds 2a and 6a). It counts as in vivo. The following applies: rat, scopolamine 3 mg/kg IP, escape latency over 8 days, post-test p-value. The procedure: Exemplary compounds 2a and 6a were evaluated for their ability to reverse chemically-induced spatial memory deficits in rats in the Morris water maze. The water maze consists of a large round tank (diameter 2.1 m) filled with 26-28° C. water to a depth of −30 cm and the water was clouded with white paint. A round platform (13 cm diameter) was fixed such that it rested 2-3 cm below the surface of the water. High-contrast visual cues were placed around the tank to aid spatial orientation of test animals. Testing consisted of placing an animal into the water facing the tank wall at one of three randomly assigned starting locations and allowing the animal to swim and search for the hidden platform for up to 120 seconds. The time taken for the animal to locate the platform was recorded as the escape latency. Animals were tested 5 times per day with a 30 second rest period between trials. Testing was completed for a total of 8 consecutive days.
Animals were divided into groups (N=8 per group) depending on treatment. Control animals received only empty vehicle. Scopolamine groups received 3 mg/kg scopolamine dissolved in sterile saline by intraperitoneal (IP) injection 30 minutes prior to testing. Test compound groups received test compound at various concentrations by oral gavage (PO) dissolved in 48% sterile saline, 50% polyethylene glycol (PEG-400), and 2% DMSO 40 minutes prior to testing. Escape latencies were recorded for each animal for 5 trials each day for 8 consecutive days. Changes in escape latency curves were statistically analyzed by 2-way ANOVA with Bonferoni post-test.

Setting [4] is: rat blood plasma, read-out: Unbound Fraction Plasma.
The mark [5] stands for this setting: rat brain homogenate, read-out: Unbound Fraction Brain.

Molecules are shown by their SMILES. Like-named read-outs stand apart in the source and are kept apart here.

Usually fraction unbound stands for the share of the substance not bound to proteins or other matrix. Regarding `CCC(C)CN1CC2N(C(=O)c3ccc(OC(F)F)cc3)CCC(=O)N2[C@@H](C)C1=O` (stereo partly shown) [Compound 2a], the fraction unbound at 4 h in series [1] (setting [4]) is 0.5 to 0.9. Further, in series [1] (setting [5]), the free fraction (fraction unbound) at 4 h was in the range of 0.1 to 0.5. In addition, in series [2], the “Tissue Distribution (% Plasma exposure at 10 min post IV dose) Brain” value was “++ (++ indicates distribution between 5 and 39%)”; the “Tissue Distribution (% Plasma exposure at 10 min post IV dose) Cerebellum” value is “+ (+ indicates distribution between 0.05 and 5%)”; the “Tissue Distribution (% Plasma exposure at 10 min post IV dose) Cortex” value was “++ (++ indicates distribution between 5 and 39%)”; the “Tissue Distribution (% Plasma exposure at 10 min post IV dose) Hippocampus” value is “++ (++ indicates distribution between 5 and 39%)”. Besides, in series [2], the “Tissue Distribution (% Plasma exposure at 10 min post IV dose) Muscle” value is recorded as “++++ (++++ indicates distribution above 70%)” and the “Tissue Distribution (% Plasma exposure at 10 min post IV dose) Sciatic Nerve” value is “++++ (++++ indicates distribution above 70%)”. The “Cognitive Improvement” value in series [3] (0.1 mg/kg PO) was “− (− indicates post-test p-value above 0.06)”. Further, the “Cognitive Improvement” value in series [3] (1 mg/kg PO) is listed as “+++ (+++ indicates post-test p-value below 0.01)”. In addition, in series [3] (10 mg/kg PO), the “Cognitive Improvement” value is on record as “− (− indicates post-test p-value above 0.06)”.

For `CCC(C)CN1CC2N(Cc3ccc(C(F)(F)F)cc3)CCC(=O)N2[C@@H](C)C1=O` (stereo partly shown) [Compound 5a], the fraction unbound at 4 h in series [1] (setting [4]) is less than 0.1. The fraction unbound at 4 h in series [1] (setting [5]) was less than 0.1. Besides, in series [2], the “Tissue Distribution (% Plasma exposure at 10 min post IV dose) Brain” value is given as “++++ (++++ indicates distribution above 70%)”, the “Tissue Distribution (% Plasma exposure at 10 min post IV dose) Cerebellum” value is on record as “++++ (++++ indicates distribution above 70%)”, the “Tissue Distribution (% Plasma exposure at 10 min post IV dose) Cortex” value is listed as “++++ (++++ indicates distribution above 70%)” and the “Tissue Distribution (% Plasma exposure at 10 min post IV dose) Hippocampus” value is “++++ (++++ indicates distribution above 70%)”.

For `CCC(C)CN1CC2N(Cc3ccc(OC(F)F)cc3)CCC(=O)N2[C@@H](C)C1=O` (stereo partly shown) [Compound 6a], in series [1] (setting [4]), the fraction unbound at 4 h was 0.1 to 0.5. Moreover, the unbound share (fraction unbound) at 4 h in series [1] (setting [5]) is less than 0.1. Besides, in series [2], the “Tissue Distribution (% Plasma exposure at 10 min post IV dose) Brain” value was “++ (++ indicates distribution between 5 and 39%)”; the “Tissue Distribution (% Plasma exposure at 10 min post IV dose) Cerebellum” value is “++ (++ indicates distribution between 5 and 39%)”; the “Tissue Distribution (% Plasma exposure at 10 min post IV dose) Cortex” value is “++ (++ indicates distribution between 5 and 39%)”; the “Tissue Distribution (% Plasma exposure at 10 min post IV dose) Hippocampus” value is “++ (++ indicates distribution between 5 and 39%)”. Further, in series [2], the “Tissue Distribution (% Plasma exposure at 10 min post IV dose) Muscle” value is on record as “++++ (++++ indicates distribution above 70%)” and the “Tissue Distribution (% Plasma exposure at 10 min post IV dose) Sciatic Nerve” value is listed as “++++ (++++ indicates distribution above 70%)”. The “Cognitive Improvement” value in series [3] (1 mg/kg PO) is “− (− indicates post-test p-value above 0.06)”. Besides, the “Cognitive Improvement” value in series [3] (10 mg/kg PO) was “++ (++ indicates post-test p-value between 0.05 and 0.01)”.

For the molecule `CCC(C)CN1CC2N(Cc3ccc(O)nc3)CCC(=O)N2[C@@H](C)C1=O` (stereo partly shown) [Compound 7a], the fraction unbound at 4 h in series [1] (setting [4]) was greater than 0.9. In addition, in series [1] (setting [5]), the fraction unbound at 4 h was 0.5 to 0.9. Besides, in series [2], the “Tissue Distribution (% Plasma exposure at 10 min post IV dose) Brain” value was “+ (+ indicates distribution between 0.05 and 5%)”; the “Tissue Distribution (% Plasma exposure at 10 min post IV dose) Cerebellum” value is “+ (+ indicates distribution between 0.05 and 5%)”; the “Tissue Distribution (% Plasma exposure at 10 min post IV dose) Cortex” value is “+ (+ indicates distribution between 0.05 and 5%)”; the “Tissue Distribution (% Plasma exposure at 10 min post IV dose) Hippocampus” value was “+ (+ indicates distribution between 0.05 and 5%)”. Moreover, in series [2], the “Tissue Distribution (% Plasma exposure at 10 min post IV dose) Muscle” value was “++ (++ indicates distribution between 5 and 39%)”; the “Tissue Distribution (% Plasma exposure at 10 min post IV dose) Sciatic Nerve” value was “++++ (++++ indicates distribution above 70%)”.

In the case of `CCC(C)CN1CC2N(C(=O)c3ccc(F)cc3)CCC(=O)N2C(C)C1=O` (stereo not shown) [Compound 11, 1-(4-fluorobenzoyl)-6-methyl-8-(2-methylbutyl)hexahydro-4H-pyrazino[1,2-a]pyrimidine-4,7(6H)-dione], in series [1] (setting [4]), the unbound share (fraction unbound) at 4 h is less than 0.1. Further, the fraction unbound at 4 h in series [1] (setting [5]) lay within 0.1 to 0.5. Moreover, in series [2], the “Tissue Distribution (% Plasma exposure at 10 min post IV dose) Brain” value is “++ (++ indicates distribution between 5 and 39%)”; the “Tissue Distribution (% Plasma exposure at 10 min post IV dose) Cerebellum” value was “+ (+ indicates distribution between 0.05 and 5%)”; the “Tissue Distribution (% Plasma exposure at 10 min post IV dose) Cortex” value was “+ (+ indicates distribution between 0.05 and 5%)”; the “Tissue Distribution (% Plasma exposure at 10 min post IV dose) Hippocampus” value was “+ (+ indicates distribution between 0.05 and 5%)”. Besides, in series [2], the “Tissue Distribution (% Plasma exposure at 10 min post IV dose) Sciatic Nerve” value is “++ (++ indicates distribution between 5 and 39%)”.

For the molecule `CCC(C)CN1CC2N(C(=O)c3ccc(C(F)(F)F)c(Cl)c3)CCC(=O)N2C(C)C1=O` (stereo not shown) [Compound 12, 1-(3-chloro-4-(trifluoromethyl)benzoyl)-6-methyl-8-(2-methylbutyl)hexahydro-4H-pyrazino[1,2-a]pyrimidine-4,7(6H)-dione], the fraction unbound at 4 h in series [1] (setting [4]) was in the range of 0.1 to 0.5. Also, the fraction unbound at 4 h in series [1] (setting [5]) was in the range of 0.1 to 0.5. Besides, in series [2], the “Tissue Distribution (% Plasma exposure at 10 min post IV dose) Brain” value is “++ (++ indicates distribution between 5 and 39%)”; the “Tissue Distribution (% Plasma exposure at 10 min post IV dose) Cerebellum” value was “++ (++ indicates distribution between 5 and 39%)”; the “Tissue Distribution (% Plasma exposure at 10 min post IV dose) Cortex” value was “++ (++ indicates distribution between 5 and 39%)”; the “Tissue Distribution (% Plasma exposure at 10 min post IV dose) Hippocampus” value was “++ (++ indicates distribution between 5 and 39%)”. For the same molecule, the “Tissue Distribution (% Plasma exposure at 10 min post IV dose) Sciatic Nerve” value in series [2] was “+++ (+++ indicates distribution between 40 and 69%)”.

In the case of `CC1C(=O)N(CC2CCC2)CC2N(C(=O)c3ccc(OC(F)F)cc3)CCC(=O)N12` (stereo not shown) [Compound 14], the fraction unbound at 4 h in series [1] (setting [4]) is 0.1 to 0.5. For the same molecule, in series [1] (setting [5]), the fraction unbound at 4 h was greater than 0.9. In addition, in series [2], the “Tissue Distribution (% Plasma exposure at 10 min post IV dose) Brain” value is “++ (++ indicates distribution between 5 and 39%)”; the “Tissue Distribution (% Plasma exposure at 10 min post IV dose) Cerebellum” value is “++ (++ indicates distribution between 5 and 39%)”; the “Tissue Distribution (% Plasma exposure at 10 min post IV dose) Cortex” value is “++ (++ indicates distribution between 5 and 39%)”; the “Tissue Distribution (% Plasma exposure at 10 min post IV dose) Hippocampus” value is “++ (++ indicates distribution between 5 and 39%)”. In addition, the “Tissue Distribution (% Plasma exposure at 10 min post IV dose) Sciatic Nerve” value in series [2] is “++ (++ indicates distribution between 5 and 39%)”.

Regarding `CC1C(=O)N(CCC2CCC2)CC2N(C(=O)c3ccc(C(F)(F)F)cc3)CCC(=O)N12` (stereo not shown) [Compound 20], the fraction unbound at 4 h in series [1] (setting [4]) was 0.1 to 0.5. Besides, the free fraction (fraction unbound) at 4 h in series [1] (setting [5]) is 0.5 to 0.9. Also, in series [2], the “Tissue Distribution (% Plasma exposure at 10 min post IV dose) Brain” value is recorded as “++++ (++++ indicates distribution above 70%)”; the “Tissue Distribution (% Plasma exposure at 10 min post IV dose) Cerebellum” value is “++++ (++++ indicates distribution above 70%)”; the “Tissue Distribution (% Plasma exposure at 10 min post IV dose) Cortex” value was “++++ (++++ indicates distribution above 70%)”; the “Tissue Distribution (% Plasma exposure at 10 min post IV dose) Hippocampus” value was “+++ (+++ indicates distribution between 40 and 69%)”. Also, the “Tissue Distribution (% Plasma exposure at 10 min post IV dose) Sciatic Nerve” value in series [2] is “++++ (++++ indicates distribution above 70%)”.

For the molecule `C=CCCN1CC2N(C(=O)c3ccc(C(F)(F)F)cc3)CCC(=O)N2C(C)C1=O` (stereo not shown) [Compound 22], in series [1] (setting [4]), the unbound share (fraction unbound) at 4 h fell in the range of 0.1 to 0.5. Also, the fraction unbound at 4 h in series [1] (setting [5]) was greater than 0.9. Further, in series [2], the “Tissue Distribution (% Plasma exposure at 10 min post IV dose) Brain” value was “++ (++ indicates distribution between 5 and 39%)”; the “Tissue Distribution (% Plasma exposure at 10 min post IV dose) Cerebellum” value was “++ (++ indicates distribution between 5 and 39%)”; the “Tissue Distribution (% Plasma exposure at 10 min post IV dose) Cortex” value was “++ (++ indicates distribution between 5 and 39%)”; the “Tissue Distribution (% Plasma exposure at 10 min post IV dose) Hippocampus” value is “++ (++ indicates distribution between 5 and 39%)”. For the same molecule, in series [2], the “Tissue Distribution (% Plasma exposure at 10 min post IV dose) Sciatic Nerve” value was “+++ (+++ indicates distribution between 40 and 69%)”.

The record behind these values is patent US20240025903A1, “Bicyclic Compounds and Uses Thereof for the Treatment of Diseases” (Athira Pharma, Inc., priority 2020, published 2024).
